The supplement of paper PMC10307832

What was measured:
Assay in all cases: relative viability (nuclei count vs DMSO), 5 days (fraction); higher = more cells survive
GW-2580 + Linsitinib = compound: COC1=CC=C(C=C1)COC2=C(C=C(C=C2)CC3=CN=C(N=C3N)N)OC [GW-2580] + C[C@]1(O)C[C@@H](c2nc(-c3ccc4ccc(-c5ccccc5)nc4c3)c3c(N)nccn32)C1 [Linsitinib] (partner 1 µM)
How it was run: (§1)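 Relative viability equals treated-well nuclei counts divided by vehicle-well nuclei counts. Counts came from 4× images of lung cancer cell lines grown in 1536-well plates for 5 days after pin-tool dosing on the day after seeding. Dosing used one drug alone or a fixed anchor-drug dose plus five library-drug doses (not always all listed) in √10 steps, and values are medians of duplicate plates.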

GW-2580 + Alpelisib = compound: COC1=CC=C(C=C1)COC2=C(C=C(C=C2)CC3=CN=C(N=C3N)N)OC [GW-2580] + Cc1nc(NC(=O)N2CCC[C@H]2C(N)=O)sc1-c1ccnc(C(C)(C)C(F)(F)F)c1 [Alpelisib] (partner 2 µM)
How it was run: as §1

GW-2580 + Dasatinib = compound: COC1=CC=C(C=C1)COC2=C(C=C(C=C2)CC3=CN=C(N=C3N)N)OC [GW-2580] + Cc1nc(Nc2ncc(C(=O)Nc3c(C)cccc3Cl)s2)cc(N2CCN(CCO)CC2)n1 [Dasatinib] (partner 0.075 µM)
How it was run: as §1

GW-2580 + Pemetrexed = compound: COC1=CC=C(C=C1)COC2=C(C=C(C=C2)CC3=CN=C(N=C3N)N)OC [GW-2580] + Nc1nc2[nH]cc(CCc3ccc(C(=O)N[C@@H](CCC(=O)O)C(=O)O)cc3)c2c(=O)[nH]1 [Pemetrexed] (partner 0.2 µM)
How it was run: as §1

Fedratinib + Lapatinib = compound: Cc1cnc(Nc2ccc(OCCN3CCCC3)cc2)nc1Nc1cccc(S(=O)(=O)NC(C)(C)C)c1 [Fedratinib] + CS(=O)(=O)CCNCc1ccc(-c2ccc3ncnc(Nc4ccc(OCc5cccc(F)c5)c(Cl)c4)c3c2)o1 [Lapatinib] (partner 2 µM)
How it was run: as §1

Row | Cell Line | relative viability (GW-2580 + Linsitinib; first compound 0.08 µM) | relative viability (GW-2580 + Linsitinib; first compound 0.8 µM) | relative viability (GW-2580 + Linsitinib; first compound 2.53 µM) | relative viability (GW-2580 + Linsitinib; first compound 8 µM) | relative viability (GW-2580 + Alpelisib; first compound 0.08 µM) | relative viability (GW-2580 + Alpelisib; first compound 0.8 µM) | relative viability (GW-2580 + Alpelisib; first compound 2.53 µM) | relative viability (GW-2580 + Alpelisib; first compound 8 µM) | relative viability (GW-2580 + Dasatinib; first compound 0.08 µM) | relative viability (GW-2580 + Dasatinib; first compound 0.8 µM) | relative viability (GW-2580 + Dasatinib; first compound 2.53 µM) | relative viability (GW-2580 + Dasatinib; first compound 8 µM) | relative viability (GW-2580 + Pemetrexed; first compound 0.08 µM) | relative viability (GW-2580 + Pemetrexed; first compound 0.8 µM) | relative viability (GW-2580 + Pemetrexed; first compound 2.53 µM) | relative viability (GW-2580 + Pemetrexed; first compound 8 µM) | relative viability (Fedratinib + Lapatinib; first compound 0.1 µM) | relative viability (Fedratinib + Lapatinib; first compound 0.3162 µM) | relative viability (Fedratinib + Lapatinib; first compound 1 µM)
1 | NCI-H1666 | 0.765 | 1.02 | 0.742 | 0.724 | 1.17 | 1.21 | 1 | 1.03 | 0.874 | 0.901 | 0.758 | 0.755 | 0.863 | 0.91 | 0.901 | 0.787 | 0.503 | 0.671 | 0.258
2 | NCI-H1651 | 1.06 | 1.04 | 1 | 0.982 | 1.26 | 1.17 | 0.954 | 0.934 | 0.307 | 0.447 | 0.43 | 0.582 | 0.605 | 0.711 | 0.578 | 0.45 | 0.817 | 0.813 | 0.118
3 | NCI-H1755 | 1.05 | 1.17 | 0.955 | 0.761 | 1.02 | 1.02 | 0.787 | 0.945 | 0.488 | 0.553 | 0.388 | 0.396 | 0.677 | 0.474 | 0.429 | 0.43 | 1.02 | 1 | 0.942
4 | NCI-H661 | 0.493 | 0.615 | 0.419 | 0.439 | 0.542 | 0.835 | 0.426 | 0.479 | 0.983 | 0.943 | 0.689 | 0.685 | 1.04 | 0.901 | 0.957 | 0.782 | 0.471 | 0.496 | 0.44
5 | HARA | 1.09 | 1.06 | 1.08 | 0.845 | 0.958 | 0.927 | 0.578 | 0.8 | 0.276 | 0.253 | 0.261 | 0.0615 | 0.289 | 0.254 | 0.29 | 0.299 | 0.75 | 0.627 | 0.384
6 | NCI-H596 | 1.22 | 1.08 | 1.07 | 1 | 0.486 | 0.525 | 0.516 | 0.471 | 0.625 | 0.543 | 0.7 | 0.688 | 0.44 | 0.502 | 0.562 | 0.512 | 0.961 | 1.07 | 0.829
7 | NCI-H1563 | 1.19 | 1.27 | 1.1 | 1.08 | 0.989 | 1.05 | 0.853 | 0.869 | 0.473 | 0.534 | 0.458 | 0.447 | 0.763 | 0.883 | 0.674 | 0.792 | 0.915 | 1.07 | 0.65
8 | NCI-H23 | 0.728 | 0.626 | 0.524 | 0.517 | 0.76 | 0.735 | 0.512 | 0.749 | 0.847 | 0.921 | 0.757 | 0.792 | 0.581 | 0.869 | 0.777 | 0.492 | 1.23 | 1.03 | 0.319
